Assays:
Format in all cases: cell-based, human
[1] = tested on: interaction between p53 and FOXO4; assay: in situ PLA (proximity ligation assay) of the physical binding between p53 and FOXO4 in H2O2-treated HaCaT cells; conditions: H2O2 200 μM, peptide 20 μM, 1 hour; for inhibition of the interaction between p53 and FOXO4 (PLA signals): in comparison with the control group
Procedure: After treating cells with the peptides of the present invention, the effects thereof on the physical binding between p53 and FOXO4 were evaluated through an in situ PLA (proximity ligation assay) method. HaCaT cells (human keratinocytes, CLS) were added at 4.5×10^4 cells per well, along with a DMEM containing 10% fetal bovine serum, to each well of a 24-well microplate and then cultured at 37° C. in a 5% CO2 incubator for 24 hours. H2O2 and the peptide solutions of Example 2 and H2O2 were added thereto so that the concentrations of H2O2 and each peptide in the medium were 200 μM and 20 μM respectively, followed by incubating for 1 hour under the same condition. As a control group, an untreated group (indicated by “control” in FIG. 1) and a group treated with H2O2 alone (indicated by “-” in FIG. 1) were used. The cells of each well were washed with PBS, fixed by treating with 2% formaldehyde for 15 minutes, and then treated with 0.1% TritonX-100 for 5 minutes to increase antibody permeability into the cells. Anti-p53 polyclonal antibody (Abcam, UK) and anti-FOXO4 polyclonal antibody (Santa Cruz, Calif., USA) were added thereto. After the PLA probe was added thereto using the in situ PLA kit (Sigma-Aldrich), hybridization, ligation, amplification and mounting steps were carried out according to the manufacturer's protocol. Each physical interaction between p53 and FOXO4 was quantified by measuring the luminescence signals (PLA signals) detected in each cell with a confocal laser microscope (Olympus fluoview FW1000; Olympus, Tokyo, Japan).

[2] = tested on: interaction between p53 and FOXO4; assay: in situ PLA of p53-FOXO4 binding with ERK inhibitor (PD98059) and SHP2 inhibitor (NSC878777) in HaCaT cells; conditions: H2O2 200 μM, 1 hour, FIG. 2
Procedure: After treating cells with the peptide of the present invention (the peptide of SEQ ID NO: 3), H2O2, a ERK inhibitor (PD98059), and a SHP2 inhibitor (NSC878777), the effects thereof on the physical binding between p53 and FOXO4 were evaluated through an in situ PLA (proximity ligation assay) method. HaCaT cells (human keratinocytes, CLS) were added at 4.5×10^4 cells per well, along with a DMEM containing 10% fetal bovine serum, to each well of a 24-well microplate and then cultured at 37° C. in a 5% CO2 incubator for 24 hours. The cells were treated with H2O2 (200 μM) and the peptide of SEQ ID NO: 3 (20 μM); or PD98059 (10 μM) or NSC878777 (10 μM) was additionally treated to the cells treated with H2O2 (200 μM) and the peptide of SEQ ID NO: 3 (20 μM), followed by incubating for 1 hour under the same condition. As a control group, an untreated group (indicated by “control” in FIG. 2) and a group treated with H2O2 alone were used. The cells of each well were washed with PBS, fixed by treating with 2% formaldehyde for 15 minutes, and then treated with 0.1% TritonX-100 for 5 minutes to increase antibody permeability into the cells. […] Each physical interaction between p53 and FOXO4 was quantified by measuring the luminescence signals (PLA signals) detected in each cell with a confocal laser microscope (Olympus fluoview FW1000; Olympus, Tokyo, Japan).

[3] = tested on: senescent ARPE-19 cells (retinal pigment epithelial cells); assay: apoptosis of H2O2-induced senescent cells, X-Gal (Senescence β-Galactosidase) staining, number of remaining senescent cells; conditions: ARPE-19, H2O2 25 μM 24 hours, then peptide 0.2 μM, 2 μM and 20 μM 24 hours; versus H2O2 alone ("-" group); FIGS. 3 and 4
Procedure: In order to evaluate the activity on the apoptosis of senescent cells by the treatment with the peptide of the present invention (the peptide of SEQ ID NO: 3) for 24 hours after inducing senescence by treating cells with H2O2, the X-Gal staining was carried out to measure the number of the remaining senescent cells. ARPE-19 cells (retinal pigment epithelial cells) were added at the density of 80% per well, along with a DMEM containing 10% fetal bovine serum, to each well of a 12-well microplate and then cultured at 37° C. in a 5% CO2 incubator for 24 hours. H2O2 was added thereto so that the concentration thereof in the medium was 25 μM, followed by incubating for 24 hours under the same condition. Thereafter, the cells in each well were washed with PBS and the peptide solution of Example 2 was added thereto so that the concentration of the peptide of SEQ ID NO: 3 was 0.2 μM, 2 μM, and 20 μM respectively, followed by incubating for 24 hours under the same condition. As a control group, an untreated group (indicated as “control” in FIGS. 3 and 4) and a group treated with H2O2 alone (indicated by “-” in FIGS. 3 and 4) were used. […] The bluish green color development detected in the senescence-induced cells was measured with a phase-contrast microscope (Olympus, Tokyo, Japan), and each number of senescent cells was quantified.

Row | Substance | extent of inhibition of the interaction between p53 and FOXO4 in comparison with the control group (PLA signals) ([1]; FIG. 1) | inhibition of the interaction between p53 and FOXO4 (PLA signals) ([1]; FIG. 1) | further results
1 | Leu-Pro-Asp (LPD) [Pep 17] | two or more times | remarkably inhibited | inhibition of the interaction between p53 and FOXO4 (PLA signals) ([1]; FIG. 1, listed as SEQ ID NO: 17): particularly excellent activity
2 | Leu-Lys-Asp (LKD) [Pep 7] | – | remarkably inhibited | inhibition of the interaction between p53 and FOXO4 (PLA signals) ([1]; FIG. 1, listed as SEQ ID NO: 7): particularly excellent activity
3 | Leu-Ala-Asp (LAD) [Pep 4] | – | remarkably inhibited | inhibition of the interaction between p53 and FOXO4 (PLA signals) ([1]; FIG. 1, listed as SEQ ID NO: 4): particularly excellent activity
4 | Leu-Glu-Asp (LED) [Pep 1] | two or more times | remarkably inhibited | inhibition of the interaction between p53 and FOXO4 (PLA signals) ([1]; FIG. 1, listed as SEQ ID NO: 1): particularly excellent activity
5 | Leu-Ile-Asp (LID) [Pep 15] | two or more times | remarkably inhibited | inhibition of the interaction between p53 and FOXO4 (PLA signals) ([1]; FIG. 1, listed as SEQ ID NO: 15): particularly excellent activity
6 | Leu-Gln-Asp (LQD) [Pep 5] | – | remarkably inhibited | inhibition of the interaction between p53 and FOXO4 (PLA signals) ([1]; FIG. 1, listed as SEQ ID NO: 5): particularly excellent activity
7 | Leu-Trp-Asp (LWD) [Pep 19] | – | remarkably inhibited | inhibition of the interaction between p53 and FOXO4 (PLA signals) ([1]; FIG. 1, listed as SEQ ID NO: 19): particularly excellent activity
8 | Leu-His-Asp (LHD) [Pep 14] | two or more times | remarkably inhibited | inhibition of the interaction between p53 and FOXO4 (PLA signals) ([1]; FIG. 1, listed as SEQ ID NO: 14): particularly excellent activity
9 | Leu-Cys-Asp (LCD) [Pep 13] | – | remarkably inhibited | inhibition of the interaction between p53 and FOXO4 (PLA signals) ([1]; FIG. 1, listed as SEQ ID NO: 13): particularly excellent activity
10 | Leu-Val-Asp (LVD) [Pep 20] | two or more times | remarkably inhibited | inhibition of the interaction between p53 and FOXO4 (PLA signals) ([1]; FIG. 1, listed as SEQ ID NO: 20): particularly excellent activity
11 | Leu-Phe-Asp (LFD) [Pep 11] | two or more times | remarkably inhibited | inhibition of the interaction between p53 and FOXO4 (PLA signals) ([1]; FIG. 1, listed as SEQ ID NO: 11): particularly excellent activity
12 | Leu-Tyr-Asp (LYD) [Pep 9] | two or more times | remarkably inhibited | inhibition of the interaction between p53 and FOXO4 (PLA signals) ([1]; FIG. 1, listed as SEQ ID NO: 9): particularly excellent activity
13 | Leu-Thr-Asp (LTD) [Pep 18] | two or more times | remarkably inhibited | inhibition of the interaction between p53 and FOXO4 (PLA signals) ([1]; FIG. 1, listed as SEQ ID NO: 18): particularly excellent activity
14 | Leu-Gly-Asp (LGD) [Pep 3] | – | remarkably inhibited | inhibition of the interaction between p53 and FOXO4 (PLA signals) ([1]; FIG. 1, listed as SEQ ID NO: 3): particularly excellent activity; dependence of the peptide's inhibitory signal on ERK and SHP2 ([2]; peptide 20 μM plus PD98059 10 μM or NSC878777 10 μM): dependent on ERK and SHP2 activation; inhibition of the interaction between p53 and FOXO4 (PLA signals) ([2]; peptide 20 μM): significantly inhibited; induction of apoptosis of senescent cells (number of remaining senescent cells) [3]: significantly induced the apoptosis of senescent cells
15 | Leu-Leu-Asp (LLD) [Pep 8] | – | remarkably inhibited | inhibition of the interaction between p53 and FOXO4 (PLA signals) ([1]; FIG. 1, listed as SEQ ID NO: 8): particularly excellent activity

From patent publication US20230023726A1, “PHARMACEUTICAL COMPOSITION COMPRISING PEPTIDE THAT INHIBITS INTERACTION OF P53 AND FOXO4” (SUPADELIXIR INC., priority 2019, published 2023)
